Experiments:
T. b. brucei STIB795/luc = assay: In vivo STIB795 mouse model of T. b. brucei infection; details: 5 mg/kg/day i.p. for 4 days
[1] = target: T1, recombinant TAO (ΔMTS rTAO) (Trypanosoma brucei brucei, UniProt Q26710); assay: TAO inhibitory kinetics (Lineweaver–Burk / Dixon plots); format: biochemical, T. brucei
T1 construct: […]; SUMO (Small Ubiquitin-related Modifier) fusion from the expression system; made in house
Experimental: To determine the type of inhibition with purified TAO, the kinetic assay was carried out in the presence of varying concentrations of 1 and substrate concentrations (Ubiquinol; Q1H2) (0–600 μM), with 250 ng TAO in a 1 mL (0.5 M Tris-HCl buffer, pH 7.3) reaction mix. The results were used to construct the Michaelis–Menten plot, which was then transformed to Lineweaver–Burk plots (Figure A).
The slopes of the Lineweaver–Burk primary plot were plotted against the varying concentrations of 1. K i = −(intercept over the X-axis) of the Dixon secondary plot.
As previously described, the Ubiquinol oxidase activity measurement was carried out using recombinant TAO lacking the mitochondrial targeting signal (ΔMTS). […] The reaction was carried out in a 1 cm cuvette for 2 min using a V-630 Jasco UV–vis spectrophotometer (Jasco Corporation, Tokyo, Japan). Briefly, the procedure involves preincubating 250 ng of the enzyme for 2 min in a 50 mM Tris-HCl (pH 7.3) buffer containing the detergent octaethylene glycol monododecylether (0.05% (w/v)) in a total reaction volume of 1 mL at 25 °C. […] For the inhibition reaction, 250 ng of the enzyme was preincubated with varying inhibitor concentrations for 2 min using the same buffer before the substrate was added. […] This was achieved using the same protocol but without TAO. […] The residual activities were plotted against the corresponding inhibitor concentration in a GraphPad Prism-9 software to obtain the IC50 value.

T. brucei wild type s427 = assay: Growth curve of T. brucei s427, continuous or 24 h limited exposure; format: cell-based; details: 2 × and 5 × EC50
Experimental: The results in Figure , which show the growth curve of T. brucei wild type s427 grown in the continuous presence or after a limited exposure (24 h) to 1, indicate that the growth pattern of cells with long-time exposure was similar to that of cells with limited exposure to 1. The compound seemed to rapidly induce an apparent growth inhibition, after approximately 4h, followed by a steep decline in population from 30 h. […] Thus, the effects of 1 on trypanosomes are irreversible before population decline begins.
2 Growth curve of T. brucei wild type s427 grown in either the continuous presence of 1 at indicated concentrations (filled symbols) or with the drug washed out with fresh media after 24 h (open symbols; the arrows indicate the time when compound 1 was withdrawn), or untreated (no drug control). The results presented are those of three biological repeats. Error bars represent SD of the biological replicates.

T. congolense WT = assay: Drug sensitivity assay, T. congolense WT bloodstream forms; format: cell-based; details: Trypanosoma congolense
Experimental: The susceptibilities of trypanosomes to compound 1 were determined as previously described using the resazurin (Alamar Blue) assay. Briefly, this protocol involves preparing a 96-well cell culture plate with a 100 μL serially diluted test compound (200 μM top concentration) in HMI-9 + 10% FBS (24 wells per control drug or test compound, with the 24th well serving as drug-free). This is followed by adjusting the cell density of mid-log-phase trypanosome cultures to the required concentration of 2 × 10^5 cells/mL (2 × 10^4 cells/well). Then, 100 μL of the adjusted cell density/culture was added to all 24 wells in the plate, then incubating trypanosomes and test compound for 48 h followed by the addition of 20 μL filter-sterilized resazurin solution prepared by adding 25 mg resazurin sodium salt to 200 mL filter-sterilized PBS. This was followed by a further 24 h of incubation. All incubations were carried out at 37 °C with 5% CO2. […] Fluorescence was measured in the 96-well plates with a FLUOstar Optima (BMG Labtech, Durham, NC, USA) at wavelengths of 544 nm for excitation, 590 for emission, and a gain of 1250. EC50 values were calculated using GraphPad Prism 9.0 software via nonlinear regression with an equation for a sigmoidal dose–response curve with variable slope (GraphPad Software Inc., San Diego, CA, USA).

T. equiperdum WT = assay: Resazurin-based drug sensitivity assay, T. equiperdum WT; format: cell-based; details: Trypanosoma equiperdum
Experimental: Other Trypanosoma species used in this study include T. evansi AntTat 3/3 (Wild-type); and T. equiperdum BoTat 1 (Bordeaux trypanozoon antigenic type 1) P (wild-type). All the trypanosomes were used only as bloodstream trypomastigotes and cultured in the standard Hirumi’s Modified Iscove’s medium #9 (HMI-9), supplemented with 10% heat-inactivated Fetal Bovine Serum (FBS), 14 μL/L β-mercaptoethanol, and 3.0 g sodium hydrogen carbonate per liter of medium (pH 7.4). Trypanosomes were cultured in vented flasks at 37 °C in a 5% CO2 atmosphere.
Briefly, this protocol involves preparing a 96-well cell culture plate with a 100 μL serially diluted test compound (200 μM top concentration) in HMI-9 + 10% FBS (24 wells per control drug or test compound, with the 24th well serving as drug-free). This is followed by adjusting the cell density of mid-log-phase trypanosome cultures to the required concentration of 2 × 10^5 cells/mL (2 × 10^4 cells/well). […] All incubations were carried out at 37 °C with 5% CO2. […] EC50 values were calculated using GraphPad Prism 9.0 software via nonlinear regression with an equation for a sigmoidal dose–response curve with variable slope (GraphPad Software Inc., San Diego, CA, USA).

[2] = Microsomal stability, mouse liver microsomes; format: in vitro ADME; details: female, CD1, mouse, pH 7.4, 0.5 mg/mL microsomes, NADPH
Experimental: Pooled mixed gender human liver microsomes (HLMs) and Pooled CD1 mouse liver microsomes (female) were purchased from Tebubio. The NADPH regenerating system was purchased from Promega. All other reagents and solvents were of special or analytical grade and were commercially available. The assays were performed according to a reported protocol with small changes. […] The reactions were initiated by adding liver microsomes at a final concentration of 0.5 mg/mL in a total volume of 250 μL. […] The supernatants were analyzed with LC/MS for the amount of parent compound remaining, and the CLint and t 1/2 were determined.

T1 sequence (Q26710 26-329, stated change not applied): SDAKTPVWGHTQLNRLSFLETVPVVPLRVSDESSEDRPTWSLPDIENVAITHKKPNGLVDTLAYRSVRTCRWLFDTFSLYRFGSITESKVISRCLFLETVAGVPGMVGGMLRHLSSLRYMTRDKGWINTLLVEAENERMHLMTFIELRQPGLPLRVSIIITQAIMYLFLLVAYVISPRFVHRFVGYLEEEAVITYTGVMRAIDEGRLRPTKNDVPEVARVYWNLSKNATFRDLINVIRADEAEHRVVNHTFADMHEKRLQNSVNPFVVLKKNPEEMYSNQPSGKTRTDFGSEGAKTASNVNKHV

Compound: Cc1cc(O)ccc1C(=O)OCCCCCCCCCCCCCC[P+](c1ccccc1)(c1ccccc1)c1ccccn1.[Br-] [Compound 1, {14-[(4-Hydroxy-2-methylbenzoyl)-oxy]-tetradecyl}-diphenyl(pyridin-2-yl)-Phosphonium Bromide]
- In vivo efficacy (extension of lifespan) (T. b. brucei STIB795/luc): no in vivo efficacy
- Ki [1]: 3.46 nM
- Vmax of TAO in the presence of inhibitor ([1]; 5 nM inhibitor): 34.7 µmol/min/mg
- Vmax of TAO in the presence of inhibitor ([1]; 10 nM inhibitor): 21.4 µmol/min/mg
- Vmax of TAO in the presence of inhibitor ([1]; 15 nM inhibitor): 13.0 µmol/min/mg
- Type of inhibition of TAO ([1]; Lineweaver–Burk plot): noncompetitive
- Time from which population steeply declines (T. brucei wild type s427): ≥ 30 h
- Time to apparent growth inhibition (T. brucei wild type s427): approximately 4 h
- EC50 (T. congolense WT): 41 ± 7 nM
- EC50 (T. equiperdum WT): 2.2 ± 0.2 nM
- microsomal CLint at 1 μM ([2]; read-out: CLint,met in mouse microsomes): 293 ± 19 µL/min/mg
- half-life at 1 μM ([2]; read-out: t1/2 in mouse microsomes): 4.6 min
